Data reported in the supplement of paper PMC8671470.

Key:
Details in all cases: 72 h
BV-173 [1] = test: cell viability (% survival relative to DMSO control, bortezomib = 0%); higher = less cytotoxic
Method in brief: (§1)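 Fifteen myeloid leukaemia cell lines were exposed to compounds at 1, 10, 100, 1000 or 10000 nM in 384-well plates for 72 h at 37 °C and 5% CO2. Viability was read by CellTiter-Glo luminescence and normalised, with vehicle as 100% and a 10 µM positive control as 0%. Values are percent survival averaged over duplicates.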

KCL-22 [2] = test: as above
Method in brief: as §1

SHI-1 [3] = test: as above
Method in brief: as §1

LAMA-84 [4] = test: as above
Method in brief: as §1

HL-60 [5] = test: as above
Method in brief: as §1

ML-2 [6] = test: as above
Method in brief: as §1

KG-1 [7] = test: as above
Method in brief: as §1

NOMO-1 [8] = test: as above
Method in brief: as §1

HEL [9] = test: as above
Method in brief: as §1

MV4-11 [10] = test: as above
Method in brief: as §1

K-562 [11] = test: as above
Method in brief: as §1

MOLM-13 [12] = test: as above
Method in brief: as §1

KU-812 [13] = test: as above
Method in brief: as §1

Mono-Mac-6 [14] = test: as above
Method in brief: as §1

THP-1 [15] = test: as above
Method in brief: as §1

BV-173 [16] = system: BV-173
Method in brief: (§2)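 Fifteen myeloid leukaemia cell lines were seeded in RPMI 1640 at densities titrated to the linear growth range and placed in 384-well plates with acoustically pre-printed compounds at five tenfold doses from 1 to 10,000 nM, in duplicate. After 72 h at 37 °C with 5% CO2, luminescent ATP viability was normalised to vehicle and to a positive control at 10 µM, and curves were fitted with a four-parameter log-logistic model. The IC50 was obtained from these fits.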

KCL-22 [17] = system: KCL-22
Method in brief: as §2

SHI-1 [18] = system: SHI-1
Method in brief: as §2

LAMA-84 [19] = system: LAMA-84
Method in brief: as §2

HL-60 [20] = system: HL-60
Method in brief: as §2

ML-2 [21] = system: ML-2
Method in brief: as §2

KG-1 [22] = system: KG-1
Method in brief: as §2

NOMO-1 [23] = system: NOMO-1
Method in brief: as §2

HEL [24] = system: HEL
Method in brief: as §2

MV4-11 [25] = system: MV4-11
Method in brief: as §2

K-562 [26] = system: K-562
Method in brief: as §2

MOLM-13 [27] = system: MOLM-13
Method in brief: as §2

KU-812 [28] = system: KU-812
Method in brief: as §2

Mono-Mac-6 [29] = system: Mono-Mac-6
Method in brief: as §2

THP-1 [30] = system: THP-1
Method in brief: as §2

CN(C)C(=O)n1nnnc1Cc1ccc(-c2ccccc2)cc1
cell viability [%]
Details	1 nM	10 nM	100 nM	1000 nM	10000 nM
BV-173 [1]	96.6	110	98.1	13.7	0.269
HEL [9]	101	112	102	87.1	1.09
HL-60 [5]	114	136	106	108	2.17
K-562 [11]	100	111	112	78.1	4.59
KCL-22 [2]	94.6	109	101	95	0.732
KG-1 [7]	93.7	108	104	60.6	8.52
KU-812 [13]	101	101	96.5	77.9	3.07
LAMA-84 [4]	83	109	103	85.5	3.4
ML-2 [6]	101	112	114	69.2	3.07
MOLM-13 [12]	99	122	115	104	0.746
MV4-11 [10]	98.3	114	89.2	76.4	0.0147
Mono-Mac-6 [14]	95.9	102	102	88.6	0.0787
NOMO-1 [8]	105	99.4	96.7	86.9	26.5
SHI-1 [3]	97.5	116	125	112	1.4
THP-1 [15]	103	112	102	67.6	35

Details	IC50 (cell viability)
BV-173 [16]	422 nM
HEL [24]	2410 nM
HL-60 [20]	3.63 µM
K-562 [26]	1880 nM
KCL-22 [17]	2920 nM
KG-1 [22]	1170 nM
KU-812 [28]	1890 nM
LAMA-84 [19]	2450 nM
ML-2 [21]	1500 nM
MOLM-13 [27]	3.38 µM
MV4-11 [25]	1770 nM
Mono-Mac-6 [29]	2480 nM
NOMO-1 [23]	4.43 µM
SHI-1 [18]	3.74 µM
THP-1 [30]	1740 nM
